This test has as its target C-C chemokine receptor type 2 (Homo sapiens, UniProt P41597). As to the kind of experiment: Antagonist activity at human CCR2 receptor.

Each structure is given as a SMILES string. Where “and” joins values, the source holds several entries; their conditions need not be identical. Identical values can stand only once.

This note sets out measurements from ChEMBL document CHEMBL1141481, “Probing the structural and topological requirements for CCR2 antagonism: holographic QSAR for indolopiperidine derivatives” (Bioorg Med Chem Lett, 2008).

C-C chemokine receptor type 2, sequence (P41597 whole entry): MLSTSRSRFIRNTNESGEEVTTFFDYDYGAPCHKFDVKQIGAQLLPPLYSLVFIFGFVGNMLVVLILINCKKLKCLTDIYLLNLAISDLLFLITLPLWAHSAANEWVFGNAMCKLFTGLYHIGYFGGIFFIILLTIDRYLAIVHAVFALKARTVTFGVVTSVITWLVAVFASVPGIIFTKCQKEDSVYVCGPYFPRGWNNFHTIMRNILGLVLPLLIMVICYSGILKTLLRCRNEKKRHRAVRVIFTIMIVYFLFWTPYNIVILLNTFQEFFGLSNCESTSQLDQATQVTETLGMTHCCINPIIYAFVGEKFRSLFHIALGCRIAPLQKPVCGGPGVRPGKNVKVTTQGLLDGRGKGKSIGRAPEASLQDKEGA

As a reminder, the Ki is a dissociation constant, usually derived from enzyme kinetics or from competition with a known ligand. Lower therefore signals a stronger hold on the target. In turn, `O=C(NCCCCCN1CCC(c2c[nH]c3ccccc23)CC1)c1ccc(-c2ccccc2)cc1` showed a Ki of 5500 nM. In other words, the single-digit micromolar range.

Compound `O=C(/C=C/c1ccc(I)cc1)NCCCCCN1CCC(c2c[nH]c3ccccc23)CC1` gave a Ki of 468 nM.

`O=C(/C=C/c1ccc(-c2ccccc2)cc1)NCCCCCN1CCC(c2c[nH]c3ccccc23)CC1` had a Ki of 1480 nM. This Ki is about 3.2-fold higher than that of the compound before.

As to `O=C(NCCCCCN1CCC(c2c[nH]c3ccccc23)CC1)c1ccc(Br)cc1`, the affinity, expressed as Ki, was 7240 nM.

Compound `O=C(/C=C/c1ccc(Cl)c(Cl)c1)NCCCCCN1CCC(c2c[nH]c3ccccc23)CC1` had a Ki of 427 nM.

On to `O=C(NCCCCCN1CCC(c2c[nH]c3ccccc23)CC1)Nc1ccc(Cl)c(Cl)c1`, for which the inhibition constant (Ki) is 1620 nM. Compared with the last compound, the Ki is about 3.8-fold higher.

Turning to `O=C(/C=C/c1ccc(Br)cc1)NCCCCCN1CCC(c2c[nH]c3ccccc23)CC1`, affinity was put at a Ki of 355 nM.

Take `O=C(/C=C/c1ccc(Cl)c(Cl)c1)N[C@H]1CC[C@H](CN2CCC(c3c[nH]c4ccccc34)CC2)CC1`: the Ki was 631 nM and 646 nM.

As to `O=C(Cc1ccc(Cl)c(Cl)c1)NCCCCCN1CCC(c2c[nH]c3ccccc23)CC1`, the affinity, expressed as Ki, was 4470 nM. That is a single-digit micromolar value.

Take `O=C(/C=C/c1ccccc1Cl)NCCCCCN1CCC(c2c[nH]c3ccccc23)CC1`: the Ki was 4470 nM.

Compound `Cc1ccc(/C=C/C(=O)NCCCCCN2CCC(c3c[nH]c4ccccc34)CC2)cc1` gave an inhibition constant Ki of 562 nM.

In turn, `CCCCc1ccc(/C=C/C(=O)NCCCCCN2CCC(c3c[nH]c4ccccc34)CC2)cc1` yielded an inhibition constant Ki of 1700 nM.

In turn, `CC(=O)Nc1ccc(/C=C/C(=O)NCCCCCN2CCC(c3c[nH]c4ccccc34)CC2)cc1` yielded an inhibition constant Ki of 12900 nM.
